Measurements published in patent publication US20240174690A1, “ANNULATED 2-AMINO-3-CYANO THIOPHENES AND DERIVATIVES FOR THE TREATMENT OF CANCER” (BOEHRINGER INGELHEIM INTERNATIONAL GMBH, priority 2021, published 2024).

How the values were obtained:
KRAS (WT)::SOS1 = KRAS (WT)::SOS1 (Homo sapiens (Human), UniProt P01116, C118S); assay: KRAS::SOS1 AlphaScreen binding assay, KRAS WT
Source text: (§1) This assay can be used to examine the potency with which compounds according to the invention binding to (mutated) KRAS inhibit the protein-protein interaction between SOS1 and (mutated) KRAS e.g., KRAS WT, KRAS G12C, KRAS G12D, KRAS G12V, KRAS G13D. […] Low IC50 values in this assay setting are indicative of strong inhibition of protein-protein interaction between SOS1 and KRAS:
(§2) These assays measure the inhibitory effect of compounds on KRAS mutant protein-protein interactions using the Alpha Screen technology by Perkin Elmer.
(§3) The following (mutant) enzyme forms of KRAS and interacting proteins are used in these assays at the given concentrations: • KRAS (G12D) 1-169, N-terminal 6His-tag, C-terminal avi-tag (Xtal BioStructures, Inc.); final assay concentration 10 nM and SOS1 564-1049, N-terminal 229 GST-tag, TEV cleavage site (Viva Biotech Ltd); final assay concentration 5 nM; • KRAS (G12C) 1-169, N-terminal 6His-tag for purification, cleaved off, C-terminal avi-tag, biotinylated, mutations: C51S, C80L, C118S (in house); final assay concentration 7.5 nM and SOS1 564-1049, N-terminal 229 GST-tag, TEV cleavage site (Viva Biotech Ltd); final assay concentration 5 nM; • KRAS (G12V) 1-169, N-terminal 6His-tag for purification, cleaved off, C-terminal avi-tag, biotinylated, TEV cleavage site, mutation: C118S, GDP loaded (in house); final assay concentration 10 nM and SOS1 564-1049, N-terminal 229 GST-tag, TEV cleavage site (Viva Biotech Ltd); final assay concentration 10 nM; • KRAS (G13D) 1-169, N-terminal 6His-tag for purification, cleaved off, C-terminal avi-tag, biotinylated, TEV cleavage site, mutation: C118S, GDP loaded (in house); final assay concentration 10 nM and SOS1 564-1049, N-terminal 229 GST-tag, TEV cleavage site (Viva Biotech Ltd); final assay concentration 10 nM; • KRAS (WT) 1-169, N-terminal 6His-tag for purification, cleaved off, C-terminal avi-tag, biotinylated, TEV cleavage site, mutation: C118S, GDP loaded (in house); final assay concentration 10 nM and SOS1 564-1049, N-terminal 229 GST-tag, TEV cleavage site (Viva Biotech Ltd); final assay concentration 10 nM.
(§4) Test compounds dissolved in DMSO are dispensed onto assay plates (Proxiplate 384 PLUS, white, PerkinElmer; 6008289) using an Access Labcyte Workstation with the Labcyte Echo 55×. For the chosen highest assay concentration of 100 μM, 150 nL of compound solution are transferred from a 10 mM DMSO compound stock solution. A series of eleven fivefold dilutions per compound are transferred to the assay plate, compound dilutions are tested in duplicates. DMSO are added as backfill to a total volume of 150 nL.
(§5) The assays run on a fully automated robotic system in a darkened room below 100 Lux. To 150 nl of compound dilution 10 μl of a mix including KRAS mutant protein, SOS1 (final assay concentrations see above) and GDP nucleotide (Sigma G7127; final assay concentration 10 μM) in assay buffer (1×PBS, 0.1% BSA, 0.05% Tween 20) are added into columns 1-24.
(§6) After 30 minutes incubation time 5 μl of Alpha Screen bead mix in assay buffer are added into columns 1-23. Bead mix consists of AlphaLISA Glutathione Acceptor Beads (PerkinElmer, Cat No AL109) and AlphaScreen Streptavidin Donor Beads (PerkinElmer Cat No 6760002) in assay buffer at a final assay concentration of 10 μg/ml each.
(§7) Plates are kept at room temperature in a darkened incubator. After an additional 60 minutes incubation time the signal is measured in a PerkinElmer Envision HTS Multilabel Reader using the AlphaScreen specs from PerkinElmer.
(§8) Each plate contains up to 16 wells of a negative control depending on the dilution procedure (platewise or serial) (DMSO instead of test compound; with KRAS mutant::SOS1 GDP mix and bead mix; column 23) and 16 wells of a positive control (DMSO instead of test compound; with KRAS mutant::SOS1 GDP mix w/o bead mix; column 24).
(§9) As internal control known inhibitors of KRAS mutant::SOS1 interaction can be measured on each compound plate. […]

A375 cells = assay: A375 CTG proliferation assay (120 h) (melanoma, wt, B-Raf mutant, negative control); assay type: cell-based; conditions: Homo sapiens, A-375, CTG 120 h
Procedure: A375 CTG Proliferation Assay (120 h) (Melanoma, Wt, B-Raf Mutant, Negative Control)
A375 cells (ATCC CRL-1619) are dispensed into 384-well plates, flat and clear bottom (Greiner, PNr. 781091) at a density of 300 cells per well in 60 μL DMEM (Sigma 06429)+10% Fetal Calf Serum (HyClone, PNr.: SH30084.03) and incubated at 37° C. in a CO2 incubator overnight. The next day, compounds (10 mM stock in DMSO) are added at logarithmic dose series using the HP Digital Dispenser D300 (Tecan), including DMSO controls. Plates are incubated for 120 h, and cell viability is measured using CellTiter-Glo luminescent cell viability reagent (Promega product code G7570). Viability (stated as percent of control) is defined as relative luminescence units RLU of each well divided by the RLU of cells in DMSO controls. IC50 values are determined from viability measurements by non-linear regression using a four-parameter model.

KRAS (G12V)::SOS1 = KRAS (G12V)::SOS1 (Homo sapiens (Human), UniProt P01116, C118S/G12V); assay: KRAS::SOS1 AlphaScreen binding assay, KRAS G12V
Chain of KRAS (G12V)::SOS1 (P01116 other isoform, or with tags, fused parts or gaps G12V/C118S): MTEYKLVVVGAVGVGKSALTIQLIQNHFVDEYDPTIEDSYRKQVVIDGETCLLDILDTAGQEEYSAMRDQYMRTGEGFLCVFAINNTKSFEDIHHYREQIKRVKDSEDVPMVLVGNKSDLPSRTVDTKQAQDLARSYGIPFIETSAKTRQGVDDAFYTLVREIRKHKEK
Source text: as §1, §2, §3, §4, §5, §6, §7, §8, §9

KRAS (G13D)::SOS1 = KRAS (G13D)::SOS1 (Homo sapiens (Human), UniProt P01116, C118S/G13D); assay: KRAS::SOS1 AlphaScreen binding assay, KRAS G13D
Chain of KRAS (G13D)::SOS1 (P01116 other isoform, or with tags, fused parts or gaps G13D/C118S): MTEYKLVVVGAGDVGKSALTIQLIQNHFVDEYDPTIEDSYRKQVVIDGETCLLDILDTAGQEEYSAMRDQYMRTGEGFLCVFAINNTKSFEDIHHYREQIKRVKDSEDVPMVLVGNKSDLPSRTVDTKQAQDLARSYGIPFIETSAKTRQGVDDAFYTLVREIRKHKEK
Source text: as §1, §2, §3, §4, §5, §6, §7, §8, §9

Chain of KRAS (WT)::SOS1 (P01116 other isoform, or with tags, fused parts or gaps C118S): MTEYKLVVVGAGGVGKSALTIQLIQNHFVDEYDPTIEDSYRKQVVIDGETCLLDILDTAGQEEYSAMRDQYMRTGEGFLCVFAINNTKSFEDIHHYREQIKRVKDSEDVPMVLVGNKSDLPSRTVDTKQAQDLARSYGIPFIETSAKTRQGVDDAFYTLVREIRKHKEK

Compound	IC50 (KRAS (WT)::SOS1)	IC50 (A375 cells)	IC50 (KRAS (G12V)::SOS1)	IC50 (KRAS (G13D)::SOS1)
C[C@H](Oc1cc(-n2cc(-c3cncs3)nn2)nc(-c2noc3c2CCC[C@@]32CCCc3sc(N)c(C#N)c32)n1)[C@@H]1CCCN1C [II-125]	9 nM	324 nM	–	–
C[C@H](Oc1cc(-n2ccc(-c3cnccn3)n2)nc(-c2noc3c2CCC[C@@]32CCCc3sc(N)c(C#N)c32)n1)[C@@H]1CCCN1C [II-130]	5 nM	1310 nM	2 nM	–
C[C@H](Oc1cc(-c2cccc(C(N)=O)c2)nc(-c2noc3c2CCC[C@@]32CCCc3sc(N)c(C#N)c32)n1)[C@@H]1CCCN1C [II-133]	8 nM	1380 nM	2 nM	–
C[C@H](Oc1cc(-n2cc3c(n2)CCN(C)C3)nc(-c2noc3c2CCC[C@@]32CCCc3sc(N)c(C#N)c32)n1)[C@@H]1CCCN1C [II-141]	3 nM	–	–	–
C[C@H](Oc1cc(N2CCOC2=O)nc(-c2noc3c2CCC[C@@]32CCCc3sc(N)c(C#N)c32)n1)[C@@H]1CCCN1C [II-143]	–	> 3000 nM	–	–
C[C@H](Oc1cc(N2CCN(C)C3(COC3)C2)nc(-c2noc3c2CCC[C@@]32CCCc3sc(N)c(C#N)c32)n1)[C@@H]1C[C@@H](F)CN1C [II-148]	5 nM	–	3 nM	–
C[C@H](Oc1cc(N2CCN(C)C3(CC3)C2)nc(-c2noc3c2CCC[C@@]32CCCc3sc(N)c(C#N)c32)n1)[C@@H]1C[C@@H](F)CN1C [II-149]	12 nM	–	–	–
C[C@H](Oc1cc(N2CCNC3(COC3)C2)nc(-c2noc3c2CCC[C@@]32CCCc3sc(N)c(C#N)c32)n1)[C@@H]1C[C@@H](F)CN1C [II-150]	3 nM	–	–	–
C[C@H](Oc1cc(N2CCN(C)C3(CCOC3)C2)nc(-c2noc3c2CCC[C@@]32CCCc3sc(N)c(C#N)c32)n1)[C@@H]1C[C@@H](F)CN1C (stereo partly shown) [II-151]	8 nM	–	–	–
CO[C@@H]1C[C@@H]([C@H](C)Oc2cc(N3CCN(C)C4(CC4)C3)nc(-c3noc4c3CCC[C@@]43CCCc4sc(N)c(C#N)c43)n2)N(C)C1 [II-152]	14 nM	–	–	–
C[C@H](Oc1nc(-c2noc3c2CCC[C@@]32CCCc3sc(N)c(C#N)c32)nc(N2CCNC3(CC3)C2)c1F)[C@@H]1C[C@@H](F)CN1C [II-155]	4 nM	–	–	–
C[C@H](Oc1nc(-c2noc3c2CCC[C@@]32CCCc3sc(N)c(C#N)c32)nc(N2CCNC3(CC3)C2)c1Cl)[C@@H]1C[C@@H](F)CN1C [II-156]	6 nM	–	–	–
C[C@H](Oc1nc(-c2noc3c2CCC[C@@]32CCCc3sc(N)c(C#N)c32)nc(N2C[C@H](C)NC3(CC3)C2)c1F)[C@@H]1C[C@@H](F)CN1C [II-157]	5 nM	–	–	–
C[C@@H]1CN(c2nc(-c3noc4c3CCC[C@@]43CCCc4sc(N)c(C#N)c43)nc(O[C@@H](C)[C@@H]3C[C@@H](F)CN3C)c2F)CC2(CC2)N1 [II-158]	4 nM	–	–	–
C[C@H](Oc1cc(N2CCN[C@@H](C)C2)nc(-c2noc3c2CCC[C@@]32CCCc3sc(N)c(C#N)c32)n1)[C@@H]1CCCN1C [II-162]	8 nM	–	–	–
C[C@H](Oc1cc(C2=CCNCC2)nc(-c2noc3c2CCC[C@@]32CCCc3sc(N)c(C#N)c32)n1)[C@@H]1CCCN1C [II-164]	8 nM	–	–	–
C[C@H](Oc1cc(N2CCNC3(CC3)C2)nc(-c2noc3c2CCC[C@@]32CCCc3sc(N)c(C#N)c32)n1)[C@@H]1C[C@@H](F)CN1C [II-165]	5 nM	–	15 nM	48 nM
C[C@H](Oc1cc(-n2cc3c(n2)CNC3)nc(-c2noc3c2CCC[C@@]32CCCc3sc(N)c(C#N)c32)n1)[C@@H]1CCCN1C [II-168]	3 nM	–	–	–
C[C@H](Oc1cc(N2CCN(C)C3(CC3)C2)nc(-c2noc3c2CCC[C@@]32CCCc3sc(N)c(C#N)c32)n1)[C@@H]1CCCN1C [II-171]	7 nM	–	50 nM	64 nM
C[C@H](Oc1cc(-n2cc3c(n2)CN(C)C3)nc(-c2noc3c2CCC[C@@]32CCCc3sc(N)c(C#N)c32)n1)[C@@H]1CCCN1C [II-174]	4 nM	–	–	–
C[C@H](Oc1nc(-c2noc3c2CCC[C@@]32CCCc3sc(N)c(C#N)c32)nc(N2CCN(C)C3(CC3)C2)c1Cl)[C@@H]1C[C@@H](F)CN1C [II-176]	31 nM	–	–	–
CC(C)NC(=O)Cc1ccn(-c2cc(O[C@@H](C)[C@@H]3CCCN3C)nc(-c3noc4c3CCC[C@@]43CCCc4sc(N)c(C#N)c43)n2)n1 [II-182]	–	–	–	8 nM
CO[C@H]1CCN(C)[C@@H]1[C@H](C)Oc1cc(N2CCNC3(CC3)C2)nc(-c2noc3c2CCC[C@@]32CCCc3sc(N)c(C#N)c32)n1 [II-184]	–	–	2 nM	–
C[C@H](Oc1cc(-n2ccc(C3(O)COC3)n2)nc(-c2noc3c2CCC[C@@]32CCCc3sc(N)c(C#N)c32)n1)[C@@H]1CCCN1C [II-189]	4 nM	–	3 nM	–
C[C@H](Oc1cc(-n2ccc(C(=O)N[C@@H]3CCOC3)n2)nc(-c2noc3c2CCC[C@@]32CCCc3sc(N)c(C#N)c32)n1)[C@@H]1CCCN1C [II-192]	5 nM	–	1 nM	7 nM
C[C@H](Oc1cc(-n2ccc(C(=O)N[C@H]3CCOC3)n2)nc(-c2noc3c2CCC[C@@]32CCCc3sc(N)c(C#N)c32)n1)[C@@H]1CCCN1C [II-193]	6 nM	–	2 nM	9 nM
COCCNC(=O)c1ccn(-c2cc(O[C@@H](C)[C@@H]3CCCN3C)nc(-c3noc4c3CCC[C@@]43CCCc4sc(N)c(C#N)c43)n2)n1 [II-195]	3 nM	–	1 nM	7 nM
CO[C@H]1CCN(C)[C@@H]1[C@H](C)Oc1cc(-n2ccc(C(=O)N[C@@H](C)c3ccccn3)n2)nc(-c2noc3c2CCC[C@@]32CCCc3sc(N)c(C#N)c32)n1 [II-196]	6 nM	–	2 nM	–
CO[C@H]1CCN(C)[C@@H]1[C@H](C)Oc1cc(-n2ccc(C(N)=O)n2)nc(-c2noc3c2CCC[C@@]32CCCc3sc(N)c(C#N)c32)n1 [II-201]	–	–	–	27 nM
C[C@H](Oc1cc(-n2ccc(-c3cn(C4CCOCC4)nn3)n2)nc(-c2noc3c2CCC[C@@]32CCCc3sc(N)c(C#N)c32)n1)[C@@H]1CCCN1C [II-210]	7 nM	–	2 nM	–
